According to patent US10239840B2, “Benzoazepine derivatives” (ViiV HEALTHCARE UK LIMITED, priority 2015, dated 2019):

The compounds below were run on HIV (assay: MT4 assay, antiviral HIV activity). Conditions: MT-4 cells (HTLV-1 transformed), read-out at 96 hours with cell titer glo.
Format: cell-based
Experimental: Antiviral HIV activity and cytotoxicity values for compounds of the invention from Table 1 were measured in parallel in the HTLV-1 transformed cell line MT-4 based on the method previously described (Hazen et al., 2007, In vitro antiviral activity of the novel, tyrosyl-based human immunodeficiency virus (HIV) type 1 protease inhibitor brecanavir (GW640385) in combination with other antiretrovirals and against a panel of protease inhibitor-resistant HIV (Hazen et al., “In vitro antiviral activity of the novel, tyrosyl-based human immunodeficiency virus (HIV) type 1 protease inhibitor brecanavir (GW640385) in combination with other antiretrovirals and against a panel of protease inhibitor-resistant HIV”, Antimicrob. Agents Chemother. 2007, 51: 3147-3154; and Pauwels et al., “Sensitive and rapid assay on MT-4 cells for the detection of antiviral compounds against the AIDS virus”, J. of Virological Methods 1987, 16: 171-185).
Luciferase activity was measured 96 hours later by adding a cell titer glo (Promega, Madison, Wis.). Percent inhibition of cell protection data was plotted relative to no compound control. Under the same condition, cytotoxicity of the compounds was determined using cell titer Glo™ (Promega, Madison, Wis.). IC50s were determined from a 10 point dose response curve using 3-4-fold serial dilution for each compound, which spans a concentration range >1000 fold.
These values are plotted against the molar compound concentrations using the standard four parameter logistic equation: y=((Vmax*x^n)/(K^n+x^n)+Y2
Y2=minimum γ n=slope factor
Vmax=maximum γ x=compound concentration [M]
`Cc1c(-c2c(C)c3c(c(C)c2[C@H](OC(C)(C)C)C(=O)O)CCN(C(=O)N2CCCCC2)CC3)cc(F)c2c1CCCO2` (atropisomer, axis not shown; (M)) [Example 22, (2S)-2-(tert-butoxy)-2-((M)-8-(8-fluoro-5-methylchroman-6-yl)-6,9-dimethyl-3-(piperidine-1-carbonyl)-2,3,4,5-tetrahydro-1H-benzo[d]azepin-7-yl)acetic Acid] showed an IC50 of 9 nM. `COc1ccc(F)cc1C(=O)N1CCc2c(C)c(-c3cc(F)c4c(c3C)CCCO4)c([C@H](OC(C)(C)C)C(=O)O)c(C)c2CC1` (atropisomer, axis not shown; (M)) [Example 7, (S)-2-(tert-butoxy)-2-((M)-3-(5-fluoro-2-methoxybenzoyl)-8-(8-fluoro-5-methylchroman-6-yl)-6,9-dimethyl-2,3,4,5-tetrahydro-1H-benzo[d]azepin-7-yl)acetic Acid] showed an IC50 of 5 nM. For `Cc1c(-c2c(C)c3c(c(C)c2[C@H](OC(C)(C)C)C(=O)O)CCN(Cc2cccc(F)c2)CC3)cc(F)c2c1CCCO2` (atropisomer, axis not shown; (M)) [Example 15, (S)-2-(tert-butoxy)-2-((M)-8-(8-fluoro-5-methylchroman-6-yl)-3-(3-fluorobenzyl)-6,9-dimethyl-2,3,4,5-tetrahydro-1H-benzo[d]azepin-7-yl)acetic Acid], the IC50 was 77 nM. `Cc1c(-c2c(C)c3c(c(C)c2[C@H](OC(C)(C)C)C(=O)O)CCN(CC2CCCCC2)CC3)cc(F)c2c1CCCO2` (atropisomer, axis not shown; (M)) [Example 17, (S)-2-(tert-butoxy)-2-((M)-3-(cyclohexylmethyl)-8-(8-fluoro-5-methylchroman-6-yl)-6,9-dimethyl-2,3,4,5-tetrahydro-1H-benzo[d]azepin-7-yl)acetic Acid] gave an IC50 of 10 nM. With `Cc1c(-c2c(C)c3c(c(C)c2[C@H](OC(C)(C)C)C(=O)O)CCN(S(=O)(=O)N2CCCCC2)CC3)cc(F)c2c1CCCO2` (atropisomer, axis not shown; (M)) [Example 21, (2S)-2-(tert-butoxy)-2-((M)-8-(8-fluoro-5-methylchroman-6-yl)-6,9-dimethyl-3-(piperidin-1-ylsulfonyl)-2,3,4,5-tetrahydro-1H-benzo[d]azepin-7-yl)acetic Acid] the IC50 was 8 nM. Compound `Cc1c(-c2c(C)c3c(c(C)c2[C@H](OC(C)(C)C)C(=O)O)CCN(S(=O)(=O)C2CCCCC2)CC3)cc(F)c2c1CCCO2` (atropisomer, axis not shown; (M)) [Example 20, (2S)-2-(tert-butoxy)-2-((M)-3-(cyclohexylsulfonyl)-8-(8-fluoro-5-methylchroman-6-yl)-6,9-dimethyl-2,3,4,5-tetrahydro-1H-benzo[d]azepin-7-yl)acetic Acid] has an IC50 of 42 nM. In the case of `COc1c(F)cccc1C(=O)N1CCc2c(C)c(-c3cc(F)c4c(c3C)CCCO4)c([C@H](OC(C)(C)C)C(=O)O)c(C)c2CC1` (atropisomer, axis not shown; (M)) [Example 10, (S)-2-(tert-butoxy)-2-((M)-3-(3-fluoro-2-methoxybenzoyl)-8-(8-fluoro-5-methylchroman-6-yl)-6,9-dimethyl-2,3,4,5-tetrahydro-1H-benzo[d]azepin-7-yl)acetic Acid], the IC50 is reported as 5 nM. `Cc1c(-c2c(C)c3c(c(C)c2[C@H](OC(C)(C)C)C(=O)O)CCN(c2ccccc2)CC3)cc(F)c2c1CCCO2` (atropisomer, axis not shown; (M)) [Example 19, (2S)-2-(tert-butoxy)-2-((M)-8-(8-fluoro-5-methylchroman-6-yl)-6,9-dimethyl-3-phenyl-2,3,4,5-tetrahydro-1H-benzo[d]azepin-7-yl)acetic Acid] was tested, and the IC50 was 92 nM. `Cc1c(-c2c(C)c3c(c(C)c2[C@H](OC(C)(C)C)C(=O)O)CCN(C(=O)c2cccc(F)c2)CC3)cc(F)c2c1CCCO2` (atropisomer, axis not shown; (M)) [Example 5, (2S)-2-(tert-butoxy)-2-((M)-8-(8-fluoro-5-methylchroman-6-yl)-3-(3-fluorobenzoyl)-6,9-dimethyl-2,3,4,5-tetrahydro-1H-benzo[d]azepin-7-yl)acetic Acid] gave an IC50 of 5 nM. Work on `COc1ccc(C)cc1C(=O)N1CCc2c(C)c(-c3cc(F)c4c(c3C)CCCO4)c([C@H](OC(C)(C)C)C(=O)O)c(C)c2CC1` (atropisomer, axis not shown; (M)) [Example 8, (S)-2-(tert-butoxy)-2-((M)-8-(8-fluoro-5-methylchroman-6-yl)-3-(2-methoxy-5-methylbenzoyl)-6,9-dimethyl-2,3,4,5-tetrahydro-1H-benzo[d]azepin-7-yl)acetic Acid] yielded an IC50 of 4 nM. Compound `COc1ccc(-c2c(C)c3c(c(C)c2[C@H](OC(C)(C)C)C(=O)O)CCN(C(=O)c2cccc(F)c2)CC3)cc1` [Example 2, (S)-2-(tert-butoxy)-2-(3-(3-fluorobenzoyl)-8-(4-methoxyphenyl)-6,9-dimethyl-2,3,4,5-tetrahydro-1H-benzo[d]azepin-7-yl)acetic Acid] has an IC50 of 76 nM. With `COc1ccc(C(=O)N2CCc3c(C)c(-c4cc(F)c5c(c4C)CCCO5)c([C@H](OC(C)(C)C)C(=O)O)c(C)c3CC2)cc1C` (atropisomer, axis not shown; (M)) [Example 9, (S)-2-(tert-butoxy)-2-((M)-8-(8-fluoro-5-methylchroman-6-yl)-3-(4-methoxy-3-methylbenzoyl)-6,9-dimethyl-2,3,4,5-tetrahydro-1H-benzo[d]azepin-7-yl)acetic Acid] the IC50 was 14 nM. Compound `Cc1c(-c2c(C)c3c(c(C)c2[C@H](OC(C)(C)C)C(=O)O)CCN(C(=O)C2CCCCC2)CC3)cc(F)c2c1CCCO2` (atropisomer, axis not shown; (M)) [Example 12, (S)-2-(tert-butoxy)-2-((M)-3-(cyclohexanecarbonyl)-8-(8-fluoro-5-methylchroman-6-yl)-6,9-dimethyl-2,3,4,5-tetrahydro-1H-benzo[d]azepin-7-yl)acetic Acid] has an IC50 of 19 nM. Compound `Cc1c(-c2c(C)c3c(c(C)c2[C@H](OC(C)(C)C)C(=O)O)CCN(C(=O)CC(C)(C)C)CC3)cc(F)c2c1CCCO2` (atropisomer, axis not shown; (M)) [Example 6, (S)-2-(tert-butoxy)-2-((M)-3-(3,3-dimethylbutanoyl)-8-(8-fluoro-5-methylchroman-6-yl)-6,9-dimethyl-2,3,4,5-tetrahydro-1H-benzo[d]azepin-7-yl)acetic Acid] has an IC50 of 60 nM. `COc1cc(C(=O)N2CCc3c(C)c(-c4cc(F)c5c(c4C)CCCO5)c([C@H](OC(C)(C)C)C(=O)O)c(C)c3CC2)ccc1F` (atropisomer, axis not shown; (M)) [Example 13, (S)-2-(tert-butoxy)-2-((M)-3-(4-fluoro-3-methoxybenzoyl)-8-(8-fluoro-5-methylchroman-6-yl)-6,9-dimethyl-2,3,4,5-tetrahydro-1H-benzo[d]azepin-7-yl)acetic Acid] showed an IC50 of 4 nM. Compound `Cc1c(-c2c(C)c3c(c(C)c2[C@H](OC(C)(C)C)C(=O)O)CCN(C(=O)C(=O)N2CCCCC2)CC3)cc(F)c2c1CCCO2` (atropisomer, axis not shown; (M)) [Example 14, (S)-2-(tert-butoxy)-2-((M)-8-(8-fluoro-5-methylchroman-6-yl)-6,9-dimethyl-3-(2-oxo-2-(piperidin-1-yl)acetyl)-2,3,4,5-tetrahydro-1H-benzo[d]azepin-7-yl)acetic Acid] has an IC50 of 17 nM. `Cc1c(-c2c(C)c3c(c(C)c2[C@H](OC(C)(C)C)C(=O)O)CCN(C(=O)c2cccc4c2OCC4)CC3)cc(F)c2c1CCCO2` (atropisomer, axis not shown; (M)) [Example 11, (S)-2-(tert-butoxy)-2-((M)-3-(2,3-dihydrobenzofuran-7-carbonyl)-8-(8-fluoro-5-methylchroman-6-yl)-6,9-dimethyl-2,3,4,5-tetrahydro-1H-benzo[d]azepin-7-yl)acetic Acid] was tested, and the IC50 was 9 nM. Work on `Cc1c2c(c(C)c([C@H](OC(C)(C)C)C(=O)O)c1-c1ccccc1)CCN(C(=O)c1cccc(F)c1)CC2` [Example 3, (S)-2-(tert-butoxy)-2-(3-(3-fluorobenzoyl)-6,9-dimethyl-8-phenyl-2,3,4,5-tetrahydro-1H-benzo[d]azepin-7-yl)acetic Acid] yielded an IC50 of 219 nM. Work on `Cc1ccc(-c2c(C)c3c(c(C)c2[C@H](OC(C)(C)C)C(=O)O)CCN(C(=O)c2cccc(F)c2)CC3)cc1` [Example 4, (S)-2-(tert-butoxy)-2-(3-(3-fluorobenzoyl)-6,9-dimethyl-8-(p-tolyl)-2,3,4,5-tetrahydro-1H-benzo[d]azepin-7-yl)acetic Acid] yielded an IC50 of 34 nM. `Cc1c(-c2c(C)c3c(c(C)c2[C@H](OC(C)(C)C)C(=O)O)CCN(CCC2CCCCC2)CC3)cc(F)c2c1CCCO2` (atropisomer, axis not shown; (M)) [Example 16, (2S)-2-(tert-butoxy)-2-((M)-3-(2-cyclohexylethyl)-8-(8-fluoro-5-methylchroman-6-yl)-6,9-dimethyl-2,3,4,5-tetrahydro-1H-benzo[d]azepin-7-yl)acetic Acid] was tested, and the IC50 was 13 nM. `Cc1c(-c2c(C)c3c(c(C)c2[C@H](OC(C)(C)C)C(=O)O)CCN(C(=O)c2cccc(F)c2)CC3)cc(Cl)c2c1CCCO2` (atropisomer, axis not shown; (M)) [Example 1, (S)-2-(tert-butoxy)-2-((M)-8-(8-chloro-5-methylchroman-6-yl)-3-(3-fluorobenzoyl)-6,9-dimethyl-2,3,4,5-tetrahydro-1H-benzo[d]azepin-7-yl)acetic Acid] was tested, and the IC50 was 27 nM.
